Patent US9346777B2, “Antiprotozoal compounds” (MediSynergics, LLC, priority 2012, dated 2016)

What follows are molecules tested on T. brucei brucei (assay: T. brucei brucei growth inhibition assay (bloodstream forms, CellTiter-Glo ATP-bioluminescence)). Conditions: Trypanosoma brucei; bloodstream forms of T. brucei brucei clone 427-221a; 40 hours at 37° C.; final DMSO 0.5%; 95% confidence intervals in parentheses.
Format: cell-based
Experimental: The growth inhibition assay for T. brucei brucei was conducted as described previously by Z. B. Mackey et al (Kenny K. H. Ang, Joseline Ratnam, Jiri Gut, Jennifer Legac, Elizabeth Hansell, Zachary B. Mackey, Katarzyna M. Skrzypczynska, Anjan Debnath, Juan C. Engel, Philip J. Rosenthal, James H. McKerrow, Michelle R. Arkin, Adam R. Renslo (2011) “Mining a Cathepsin Inhibitor Library for New Antiparasitic Drug Leads”, PLoS Neglected Tropical Diseases, 5(5):e1023). Bloodstream forms of the monomorphic T. brucei brucei clone 427-221a were grown in complete HMI-9 medium containing 10% FBS, 10% Serum Plus medium (Sigma Inc., St. Louis, Mo., USA), 50 U/mL penicillin and […] (Invitrogen) at 37° C. under a humidified atmosphere and 5% CO2. Inhibitor stocks were prepared in 100% DMSO and screened at […] for percent inhibition values or serially diluted from […] in 10% DMSO for IC50 determinations. […] of diluted parasites ([…]) in sterile Greiner 96-well flat white opaque culture plates such that the final DMSO concentration was 0.5%. The 0% inhibition control wells contained 0.5% DMSO while 100% inhibition control wells contained […] thimerosal (Sigma). After compound addition, plates were incubated for 40 hours at 37° C. At the end of the incubation period, […] of CellTiter-Glo™ reagent (Promega Inc., Madison, Wis., USA) was added to each well and plates were placed on an orbital shaker at room temperature for 2 min to induce lysis. After an additional 10 min of incubation without shaking to stabilize the signal, the ATP-bioluminescence of each well was determined using an Analyst HT plate reader (Molecular Devices, Sunnyvale, Calif., USA). Raw values were converted to log 10 and percentage inhibition calculated relative to the controls. IC50 curve fittings were performed with Prism 4 software as above. Pentamidine was used as a comparator in the assay.

First: CN(C)CCCC1(c2ccc(F)cc2)OCc2cc(C(=N)N3CCCC3)ccc21 (centres unmarked) [Example 6, 1-[1-[3-(dimethylamino)propyl]-1-(4-fluorophenyl)-1,3-dihydro-2-benzofuran-5-yl]-1-(pyrrolidin-1-yl)methan-imine]
Second: CN(C)CCCC1(c2ccc(F)cc2)OCc2cc(C(=N)N3CCOCC3)ccc21 (centres unmarked) [Example 5, 1-[1-[3-(dimethylamino)propyl]-1-(4-fluorophenyl)-1,3-dihydro-2-benzofuran-5-yl]-1-(morpholin-4-yl)methan-imine]
The IC50 of the first is 1.5-fold lower: 24 µM for the first, 37 µM for the second. The first is the more potent here.

First: CN(C)CCCC1(c2ccc(F)cc2)OCc2cc(-c3ncc[nH]3)ccc21 (centres unmarked) [Example 7]
Second: CN(C)CCCC1(c2ccc(F)cc2)OCc2cc(C(=N)N)ccc21 (centres unmarked) [Example 1, 1-[3-(dimethylamino)propyl]-1-(4-fluorophenyl)-1,3-dihydro-2-benzofuran-5-carboximidamide]
The IC50 of the first is 23-fold lower: 1.4 µM for the first, 32 µM for the second.

`CN(C)CCCC1(c2ccc(F)cc2)OCc2cc(C(=N)NCc3ccccc3)ccc21` (centres unmarked) [Example 4, N-benzyl-1-[3-(dimethylamino)propyl]-1-(4-fluorophenyl)-1,3-dihydro-2-benzofuran-5-carboximidamide] was tested, and the IC50 was 8.8 µM.
